Test results as given in patent publication US20210071180A1, “MICRORNA 584-5P COMPOSITIONS AND METHODS FOR TREATING CANCER” (BOARD OF REGENTS, THE UNIVERSY OF TEXAS SYSTEM, priority 2018, published 2021).

What was measured:
MB cells = experiment: Cell viability, proliferation, clonogenic and transwell migration assays; format: cell-based
Method: Cell viability and proliferation assays. MB cells transfected with miR-584-5p mimic or target siRNAs were seeded in 96-well plates at a density of 5×10^3 for D556Med and DAOY or 10×10^3 for D425Med and D458Med per well for 72 hours. Cell viability was assessed using CellTiter-Glo (Promega) or alamarBlue (Thermofisher), and proliferation was assessed using CyQuant Direct Cell Proliferation Assay (Thermofisher).
Next, the in vitro results were validated by determining the function of miR-584-5p in MB and by using an in vivo tumor xenograft model to test the efficacy of miR-584-5p-VCR combination therapy. […] In FIG. 3A, cell proliferation was measured by CyQuant Cell Proliferation Assay. The p-values were determined using standard Student t-tests. […] In FIG. 3B, cell proliferation was measured using an IncuCyte phase-only processing module. […] The p-value was calculated using a standard Student t-test. […] The p-value was calculated using a standard Student t-test. […] In FIG. 4F, The p-value was calculated using a standard Student t-test. […] Cell proliferation was measured using an IncuCyte phase-only processing module. ****, p<0.0001. […]
To determine whether miR-584-5p imparts its tumor-suppressing and VCR-sensitizing effect by downregulating HDAC1/eIF4E3 levels in MB, the function of eIF4E3 and HDAC1 in MB was investigated. […] The p-values in FIGS. 6C and D were calculated using a standard Student t-test. […]

[1] = test system: activated CHK1, ATR, BRCA1; experiment: Western blot of checkpoint proteins; format: cell-based; conditions: miR-584-5p mimic-transfected MB cells
Method: FIG. 13C-D show representative immunofluorescence images showing 53BP1 foci in D556Med cells transfected with miR-NC or miR-584-5p mimic (C) or scramble-siRNA or eIF4E3/HDAC1-siRNAs (D) and treated with or without 10 Gy of IR.
Immunofluorescence and Western blot analysis Immunofluorescence analyses was carried out on cells fixed in 4% paraformaldehyde (Imam, J. S. et al. PLoS One 7, e52397, (2012)). Western blot analysis was performed on cell extracts from miR-584-5p mimic- or target gene siRNA-transfected MB cell lines in accordance with previously reported studies (Rajamanickam, S. et al. Clin Cancer Res 22, 3524-3536, (2016); and Imam, J. S. et al. PLoS One 7, e52397, (2012). Antibodies against horseradish peroxidase-conjugated β-actin (1:50,000; #A5316), β-tubulin (#T8328), and glyceraldehyde-3-phosphate dehydrogenase (GAPDH) (1:25,000; #G9295) were purchased from Sigma-Aldrich. Antibody against eIF4E3 (1:1000; #17282-1-AP) was purchased from Proteintech. Antibodies against HDAC1 (1:1000; #5356), pCHK1 (1:1000; #2348), and CHK1 (1:1000; #2360) were purchased from Cell Signaling Technology (Danvers, Mass., USA). Antibodies against MYC (1:1000; #Sc-40), BRCA1 (1:1000; #6954), and ATR (1:1000; #sc-515173) were purchased from Santa Cruz. Antibody against 53BP1 (1:300; #A300-272AT) was purchased from Bethyl Laboratories. […]

Question: With “miR-584-5p: microRNA mimic; nucleotide sequence UUAUGGUUUGCCUGGGACUGAG (SEQ ID NO: 1); purchased from Thermofisher (chemistry not given here)” as the substance, how does the “long-term viability and migration elicited by HDAC1/eIF4E3 overexpression” value (MB cells; D556Med cells cotransfected with eIF4E3/HDAC1 expression vector and miR-584-5p mimic) read?
Answer: Its value is “rescued the increased long-term viability and migration”.

Question: And the “short-term and long-term viability as well as migration of MB cells” value (MB cells; vs miR-NC)?
Answer: Its value is “reduced”.

Question: And the “levels of activated CHK1 and ATR, as well as BRCA1” value [1]?
Answer: The value was “significantly lower levels”.
